Source: BindingDB's records for doi:10.1021/jm050004k (Karo Bio, 2005)
Values belong to the compound of their own block, whether it stands above or below them.

Legend:
[1] = target: T1, Thyroid hormone receptor alpha (Homo sapiens, UniProt P10827); test: TRalpha-Binding Assay and Thyroid Response Element (TRAFalpha1) Reporter Assay.; conditions: pH 7; 4 °C
T1 sequence (P10827 whole entry): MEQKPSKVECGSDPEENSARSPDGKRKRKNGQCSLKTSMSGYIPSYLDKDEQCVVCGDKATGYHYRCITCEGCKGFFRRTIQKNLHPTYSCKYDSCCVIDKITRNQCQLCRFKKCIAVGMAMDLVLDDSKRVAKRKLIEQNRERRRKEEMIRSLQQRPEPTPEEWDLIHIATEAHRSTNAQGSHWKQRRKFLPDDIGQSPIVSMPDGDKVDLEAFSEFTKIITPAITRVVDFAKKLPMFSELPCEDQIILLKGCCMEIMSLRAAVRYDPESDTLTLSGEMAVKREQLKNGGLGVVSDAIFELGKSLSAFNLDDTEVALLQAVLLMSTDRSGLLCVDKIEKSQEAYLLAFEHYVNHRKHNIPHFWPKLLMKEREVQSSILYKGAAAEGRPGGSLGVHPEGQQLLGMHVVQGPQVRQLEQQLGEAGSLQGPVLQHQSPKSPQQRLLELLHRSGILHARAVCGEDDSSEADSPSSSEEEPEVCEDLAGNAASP
From the text: IIC50 is the concentration of each compound required to inhibit 50% binding of 125I-T3 to hTRalpha. EC50 is the concentration of compound required to inhibit 50% of T3-induced TRalpha-activation in CHOK1 cells stably transfected with hTRalpha using alkaline phosphatase reporter assay.

[2] = target: T2, Thyroid hormone receptor beta (Homo sapiens, UniProt P10828); test: TRbeta-Binding Assay and Thyroid Response Element (TRAFbeta1) Reporter Assay.; conditions: pH 7; 4 °C
T2 sequence (P10828 whole entry): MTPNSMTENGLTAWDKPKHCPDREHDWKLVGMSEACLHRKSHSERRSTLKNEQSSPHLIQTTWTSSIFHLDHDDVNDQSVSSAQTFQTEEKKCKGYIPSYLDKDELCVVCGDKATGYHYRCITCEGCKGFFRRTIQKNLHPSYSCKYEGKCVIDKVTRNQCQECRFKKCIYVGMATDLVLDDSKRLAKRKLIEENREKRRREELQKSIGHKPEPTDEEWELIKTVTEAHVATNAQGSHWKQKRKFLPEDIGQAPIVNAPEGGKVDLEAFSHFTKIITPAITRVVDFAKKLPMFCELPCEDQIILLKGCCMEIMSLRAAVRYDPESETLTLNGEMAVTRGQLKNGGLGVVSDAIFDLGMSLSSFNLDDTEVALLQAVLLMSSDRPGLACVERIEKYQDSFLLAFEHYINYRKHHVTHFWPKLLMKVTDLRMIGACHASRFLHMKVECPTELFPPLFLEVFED
From the text: IC50 is the concentration of each compound required to inhibit 50% binding of 125I-T3 to hTRbeta. EC50 is the concentration of compound required to inhibit 50% of T3-induced TRbeta-activation in CHOK1 cells stably transfected with hTRbeta using alkaline phosphatase reporter assay.

Compound: CCC(CC)COc1c(Br)cc(CC(=O)O)cc1Br [2-[3,5-dibromo-4-(2-ethylbutoxy)phenyl]acetic acid]
EC50 [1]: 0.82 nM | EC50 [2]: 0.7 nM

Compound: CC(C)CCOc1c(Br)cc(CC(=O)O)cc1Br [2-[3,5-dibromo-4-(3-methylbutoxy)phenyl]acetic acid]
IC50 [2]: 1800 nM

Compound: O=C(O)Cc1cc(Br)c(OCC2CCCCC2)c(Br)c1 [2-[3,5-dibromo-4-(cyclohexylmethoxy)phenyl]acetic acid]
EC50 [1]: 0.42 nM | EC50 [2]: 0.52 nM

EC50 [1]: 0.7 nM | EC50 [2]: 0.8 nM
Compound: CCCCCCOc1c(Br)cc(CC(=O)O)cc1Br [2-[3,5-dibromo-4-(hexyloxy)phenyl]acetic acid]

Compound: CCCCCCOc1c(Br)cc(CCC(=O)O)cc1Br [3-[3,5-dibromo-4-(hexyloxy)phenyl]propanoic acid]
EC50 [1]: 0.6 nM | EC50 [2]: 1 nM

Compound: O=C(O)CCc1cc(Br)c(OCC2CCCCC2)c(Br)c1 [JMC496635 Compound 9]
EC50 [1]: 0.53 nM | EC50 [2]: 0.12 nM
